This is an account of results in patent US12564570B2, “Use of leoligin in the prevention of tissue damage” (UNIVERSITÄT LINZ, priority 2020, dated 2026).

Series [1] is described as follows: Metabolic stability assay in human liver S9 fraction. In kind it is in vitro ADME. The note with it: for elimination half live in liver S9: human liver S9 0.5 mg/ml, NADPH and UDPGA co-factors, 3 μM compound, 37° C., HPLC, first order kinetic. The text has this:
To gain insights into the enzymatic stability of a drug, the metabolic stability assay serves as an effective tool and also helps to separate applicable routes for drug uptake from less applicable ones e.g. due to fast hepatic clearance. When substances are applied orally, the liver clearance (first-pass effect) has the most influence on drug clearance and further on the amount of active drug reaching the site of action. Thus, in order to test hepatic clearance, 5-ML was exposed to subcellular fractions of liver and compound concentrations were assessed in a time-dependent manner.
The concept of in vitro metabolic stability testing is based on and predicts well liver metabolic clearance in vivo. Therefore, the subcellular fraction which accounts for most of the enzymatic activity of the organ is used, which contains intra and extra cellular enzymes of the liver. The elimination half live of 5-ML was calculated by the assessment of the elimination constant.
(§1) For the organ specific enzymatic degradation of a compound a reaction mix (1 ml) was made, and aliquots (50 μl) were taken at the timepoints indicated in the Figures to calculate the elimination constant by measuring the compound concentration over time using HPLC-based quantification.
(§2) The reaction mix contains: • Subcellular fraction of the specific organ (Liver S9, Lung microsomes, or Saliva), • Co-Factor Solution (NADPH and UDPGA). Co-factors are used in this assay to activate the enzymatic activity of the main metabolizing enzymes of the organ specific subcellular fractions. NADPH is needed for the Phase I oxidation where Cytochrome P450 […] accounts for the most and UDPGA is needed for the Phase II glucuronidation, • and the desired compound: 5-ML as active ingredient, Diclofenac as control, water as control; diluted in DMSO.
All compounds were tested in triplicates, except the solvent control (water instead of active compound 5-ML). […]

The nature of series [2]: Metabolic stability assay in pooled human lung microsomes. In kind it is in vitro ADME. The note with it: pooled human lung microsomes with co-factors; also printed as 23.1 h. How it is done:
as §1, §2
(§3) Preparation of the reaction mix (in Triplicates): • Take 980 μl organ specific subcellular fraction solution (0.5 mg/ml) of human liver S9 fraction in DPBS with Calcium and Magnesium, • Add 10 μl of substance stock solution dissolved in DMSO (c 0,003 M) from either 5-ML, Diclofenac or water as solvent control. […] Cells 2020, 9, 2048).
Next, 5-ML was exposed to lung microsomes (drug delivery by inhalation).
Materials & Methods are the same as in Example 4, except that lung microsomes were used instead of S9 liver fraction.

Series [3] in a line: Metabolic stability assay in pooled human saliva. In kind it is in vitro ADME. The protocol: as §1, §2, §3
Materials & Methods are the same as in Example 4, except that pooled human saliva was used instead of S9 liver fraction. […]

The test system of series [4] is myocardial infarction rat model. The note with it: direct injection into the peri-infarction zone; cited from earlier work.
Series [5] deals with myocardial infarction in mice. As to conditions: after induction of MI in mice, 10 injections per heart directly into the infarction zone; cited from earlier work.
The next series concerns ATRA-signalling. The note with it: Danzl et al. 2019; cited from earlier work.
For series [6] the following is noted: literature value; cited from earlier work.

Consider `C/C=C(/C)C(=O)OC[C@H]1[C@@H](Cc2ccc(OC)c(OC)c2)CO[C@@H]1c1cc(OC)c(OC)c(OC)c1` [5-ML], for which the “elimination half live in liver S9” value in series [1] stood at 10.66 min. Further, in series [1] (human liver S9, Ln(2)/k gives half live, time axis in minutes, in min-1), the “elimination constant of exponential first order kinetic” value is 0,065. For the same compound, in series [2], the “elimination half live in lung microsomes” value turned out to be 1386 min. The “elimination in saliva with co-factors” value in series [3] (with co-factors (NADPH and UDPGA)) is “no elimination”. Also, the “elimination half-life in saliva without co-factor” value in series [3] (without co-factor solution) stood at 115.5 h. Moreover, the arteriogenesis in vivo result in series [4] is on record as “induced arteriogenesis”. Besides, the infarction area entry in series [5] is “reduces the infarction area”. The “inhibition of ATRA-signalling” value in the series on ATRA-signalling is on record as “capable of inhibiting ATRA-signalling”.
On to `O=C(O)Cc1ccccc1Nc1c(Cl)cccc1Cl` [diclofenac, reference compound], for which the “elimination half live in liver S9” value in series [1] is 173 min. Further, in series [6], the “estimated half live in human liver in literature” value was 1 to 3 h.
